Data from paper PMC11855827, “High-Throughput Screening of Five Compound Libraries for Anthelmintic Activity and Toxicity Leads to the Discovery of Two Flavonoid Compounds” (International Journal of Molecular Sciences, 2025).
Several values for one entry are separate records, joined by “and”; a condition that tells them apart may be missing. Identical values can stand only once. Like-named read-outs stand apart in the source and are kept apart here. Where a SMILES comes first, the peptide text is derived from it. The star is where a group is joined. βNA = c1ccc2cc(N*)ccc2c1

Test system: C. elegans
Details: for Percentage of motility inhibition 0 h / Percentage of motility inhibition 24 h: Table S2, C. elegans SS assay, averages of 4 data points

| Molecule | Percentage of motility inhibition 0 h (110 μM) | Percentage of motility inhibition 24 h (110 μM, 24 h) | Inhibition (%) 110 μM (0 h) | Inhibition (%) 110 μM (24 h) | Inhibition (%) 110 μM (24 h) (C. elegans L4 motility, 110 μM, 24 h, mean ± SD of four experiments) |
| --- | --- | --- | --- | --- | --- |
| Cl.Cl.NC(N)=NCCC[C@H](NC(=O)[C@@H](N)Cc1ccccc1)C(=O)Nc1ccc2ccccc2c1 [PAβN (dihydrochloride)] (H-Phe-Arg-βNA) | 9% | 6% | – | – | – |
| Mogroside II-A | 0% | 14% | – | – | – |
| C=C1C(=O)O[C@@H]2[C@H]3C(CO)=CC(=O)C3=C(C)C[C@H](OC(=O)Cc3ccc(O)cc3)[C@@H]12 [Lactupicrin] | 7% | 25% | – | – | – |
| N[C@@H](CCC(=O)O)C(=O)[O-].[Na+] [L-Glutamic acid (monosodium salt)] | 1% | 0% | – | – | – |
| COC(=O)c1ccc(O)cn1 [Methyl 5‐hydroxypyridine‐2‐carboxylate] | 7% | 1% | – | – | – |
| COc1cc(/C=C/C(=O)O[C@H]2[C@H](O)[C@@H](CO)O[C@@]2(CO)O[C@H]2O[C@H](COC(=O)c3ccc(O)cc3)[C@@H](O)[C@H](O)[C@H]2O)cc(OC)c1OC [Tenuifoliside A] | 0% | 15% | – | – | – |
| COc1cc2c(cc1O)CC[n+]1cc3c(OC)c(OC)ccc3cc1-2.[Cl-] [Jatrorrhizine (chloride)] | 33% | 4% | – | – | – |
| Cl.NCCCC[C@H](N)C(=O)O [L-Lysine hydrochloride] | 19% | 0% | – | – | – |
| CC1(C)S[C@@H]2[C@H](NC(=O)[C@H](NC(=O)N3CCN(S(C)(=O)=O)C3=O)c3ccccc3)C(=O)N2[C@H]1C(=O)[O-].[Na+] [Mezlocillin (sodium)] | 0% | 4% | – | – | – |
| O=c1cc(-c2ccc(O)cc2)oc2cccc(O)c12 [4',5‐Dihydroxyflavone] | 39% | 6% | – | – | – |
| C=C(C)[C@@H]1CC=C(C=O)CC1 [L-Perillaldehyde] | 22% | 25% | – | – | – |
| NC[C@H]1O[C@H](O[C@H]2[C@H](O[C@@H]3O[C@H](CO)[C@@H](O)[C@H]3O)[C@@H](O)[C@H](N)C[C@@H]2N)[C@H](N)[C@@H](O)[C@@H]1O.O=S(=O)(O)O [Ribostamycin (sulfate)] | 33% | 13% | – | – | – |
| O=c1cc(-c2ccc(O)c(O)c2)oc2c(C3OC(CO)C(O)C(O)C3OC3OC(CO)C(O)C(O)C3O)c(O)cc(O)c12 (stereo not drawn) [2"‐O‐beta‐L‐galactopyranosylorientin] | 7% | 0% | – | – | – |
| C=CCCCCCCCCC(=O)[O-].C=CCCCCCCCCC(=O)[O-].[Zn+2] [10‐Undecenoic acid (zinc salt)] | 43% | 35% | – | – | – |
| COC(=O)CC(NC(=O)[C@@H](NC(=O)OC(C)C)C(C)C)c1ccc(Cl)cc1 (some centres unmarked) [Valifenalate] | 26% | 3% | – | – | – |
| O=c1c2cc(O[C@@H]3O[C@H](CO)[C@@H](O)[C@H](O)[C@H]3O)c(O)cc2oc2cc(O)c([C@@H]3O[C@H](CO)[C@@H](O)[C@H](O)[C@H]3O)c(O)c12 [Neomangiferin] | 7% | 17% | – | – | – |
| C[C@@]1(F)[C@H](O)[C@@H](CO)O[C@H]1n1ccc(=O)[nH]c1=O [PSI‐6206] | 19% | 5% | – | – | – |
| CC1(C)[C@@H](O[C@H]2O[C@H](C(=O)O)[C@@H](O)[C@H](O)[C@H]2O[C@@H]2O[C@H](C(=O)O)[C@@H](O)[C@H](O)[C@H]2O)CC[C@]2(C)[C@H]3C(=O)C=C4[C@@H]5C[C@@](C)(C(=O)O)CC[C@]5(C)CC[C@@]4(C)[C@]3(C)CC[C@@H]12 [Ammonium glycyrrhizinate] | 20% | 11% | – | – | – |
| COc1cc2c(cc1O)CC[n+]1cc3c(OC)c(OC)ccc3cc1-2.[OH-] [Jatrorrhizine (hydroxide)] | 8% | 5% | – | – | – |
| O.O=C(O)CC(O)(CC(=O)O)C(=O)O [Citric acid (monohydrate)] | 63% | 32% | – | – | – |
| CC1(C)CC[C@]23CO[C@@]4(C=C[C@@H]5[C@@]6(C)CC[C@H](O)[C@@](C)(CO)[C@@H]6CC[C@@]5(C)[C@]4(C)C[C@@H]2O)[C@@H]3C1 [Saikogenin F] | 53% | 46% | – | – | – |
| CC1(C)[C@@H](O[C@H]2O[C@H](C(=O)[O-])[C@@H](O)[C@H](O)[C@H]2O[C@@H]2O[C@H](C(=O)[O-])[C@@H](O)[C@H](O)[C@H]2O)CC[C@]2(C)[C@H]3C(=O)C=C4[C@@H]5C[C@@](C)(C(=O)O)CC[C@]5(C)CC[C@@]4(C)[C@]3(C)CC[C@@H]12.[K+].[K+] [Dipotassium glycyrrhizinate] | 17% and 15% | 3% | – | – | – |
| CCC[C@@H]1C[C@@H](C(=O)N[C@@H]([C@H]2O[C@H](SC)[C@H](O)[C@@H](O)[C@H]2O)[C@@H](C)O)N(C)C1.Cl.O [Lincomycin (hydrochloride hydrate)] | 1% | 0% | – | – | – |

| Molecule | Percentage of motility inhibition 0 h (110 μM) | Percentage of motility inhibition 24 h (110 μM, 24 h) | Inhibition (%) 110 μM (0 h) | Inhibition (%) 110 μM (24 h) | Inhibition (%) 110 μM (24 h) (C. elegans L4 motility, 110 μM, 24 h, mean ± SD of four experiments) |
| --- | --- | --- | --- | --- | --- |
| CC(=O)OC[C@@]12CC[C@@H](C)[C@](C)(CCC3=CC(=O)OC3)[C@H]1C[C@H](O)C=C2CO [Blinin] | 0% | 7% | – | – | – |
| C/C(=C\CNc1ncnc2c1ncn2[C@@H]1O[C@H](CO)[C@@H](O)[C@H]1O)CO [trans‐Zeatinriboside] | 9% | 0% | – | – | – |
| COc1ccc(-c2coc3cc(OC)ccc3c2=O)cc1 [4',7‐Dimetho xyisoflavone] | 21% | 27% | – | – | – |
| CC(=O)OC/C1=C\[C@H]2[C@@H](OC(=O)/C=C/c3ccccc3)[C@@H](C)C[C@]2(OC(C)=O)C(=O)/C(C)=C/[C@@H]2[C@H](CC1)C2(C)C [Euphorbia factor L7a] | 21% | 23% | – | – | – |
| CC(=O)NCCc1c[nH]c2ccc(O)cc12 [N‐Acetyl‐5‐hydroxytryptamine] | 0% | 0% | – | – | – |
| COc1ccc(CCNC(=O)/C=C/c2ccc(O)c(O)c2)cc1 [N‐Caffeoyl O‐methyltyramine] | 0% | 0% | – | – | – |
| Avermectin B1 [reference compound] | – | 41% | 81 ± 1% | 42 ± 1% | – |
| COc1ccc(-c2coc3cc(O[C@@H]4O[C@H](CO)[C@@H](O)[C@H](O)[C@H]4O)c(OC)c(O)c3c2=O)cc1O [Iristectorin A] | 0% | 2% | – | – | – |
| Alpinetin | 1% | 14% | – | – | – |
| CC1=C(CO)C(C)(C)CCC1 [β-Cyclogeraniol] | 15% | 48% | – | – | – |
| C/C=C1\C[C@@H](C)[C@](O)(CO)C(=O)OCC2=CC[N+]3([O-])CC[C@@H](OC1=O)[C@@H]23 (some centres unmarked) [Usaramine N‐oxide] | 22% and 12% | – | – | – | – |
| C[C@@H]1O[C@@H](O[C@H]2[C@H](OC(=O)[C@]34CCC(C)(C)C[C@H]3C3=CC[C@@H]5[C@@]6(C)C[C@H](O)[C@H](O[C@@H]7O[C@H](CO)[C@@H](O)[C@H](O)[C@H]7O)C(CO)(CO)[C@@H]6CC[C@@]5(C)[C@]3(C)C[C@H]4O)OC[C@H](O)[C@@H]2O)[C@H](O)[C@H](O)[C@H]1O[C@@H]1OC[C@@H](O)[C@H](O)[C@H]1O [Deapioplatycodin D] | 12% | 0% | – | – | – |
| O=C1C[C@@H](c2ccc(O)cc2)Oc2cc(O[C@@H]3O[C@H](CO)[C@@H](O)[C@H](O)[C@H]3O)ccc21 [Neoliquiritin] | 0% | 20% | – | – | – |
| COc1c(O)cc2oc(-c3ccc(O)c(O)c3)cc(=O)c2c1O [Nepetin] | 4% | 17% | – | – | – |
| COc1ccc(-c2cc(=O)c3c(O)cc(O[C@@H]4O[C@H](CO[C@@H]5O[C@@H](C)[C@H](O)[C@@H](O)[C@H]5O)[C@@H](O)[C@H](O)[C@H]4O)cc3o2)cc1O [Diosmin] | – | 10% and 4% | – | – | – |
| CN1CCCN=C1/C=C/c1cccs1.O=C(O)C(O)C(O)C(=O)O [Pyrantel tartrate, reference compound] | 85% | 61% | – | – | 26 ± 1% |
| C=C[C@H]1[C@H](O[C@@H]2O[C@H](CO)[C@@H](O)[C@H](O)[C@H]2O)OC=C(C(=O)OC)[C@H]1C[C@@H]1c2cc(O)c(O)cc2CCN1C(C)=O [Ipecoside] | 0% | 14% | – | – | – |
| O=c1c2c3c(ccc2cc2n1CCc1cc4c(cc1-2)OCO4)OCO3 [8‐Oxocoptisine] | 2% | 30% | – | – | – |
| C=CCCCCCCCCC(=O)O [10-Undecenoic acid] | 0% | 6% | – | – | – |
| C=C[C@H]1[C@H](O[C@@H]2O[C@H](CO)[C@@H](O)[C@H](O)[C@H]2O)OC=C(C(=O)OC)[C@H]1CC(=O)O [Secoxyloganin] | 0% | 3% | – | – | – |
| Notoginsenoside Fe | 0% | 0% | – | – | – |
| CC(=O)OCC1=C(C(=O)O)N2C(=O)[C@@H](N)[C@H]2SC1 [7‐Aminocephalosporanic acid] | 3% | 0% | – | – | – |
| COc1cc(/C=C/C(=O)OCC[N+](C)(C)C)cc(OC)c1O.N#C[S-] [Sinapine (thiocyanate)] | 0% | 0% | – | – | – |
